SMILES strings stand for the structures. Like-named read-outs stand apart in the source and are kept apart here. Bounds are passed on as bounds.

The record followed here is US10669283B2, “Compound and pharmacologically acceptable salt thereof” (MEIJI SEIKA PHARMA CO., LTD., priority 2016, dated 2020).

The subject of one data set is PDE4. In words: PDE4 inhibition, scintillation proximity assay (SPA). Format: biochemical. In a few lines: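 Scintillation proximity read-out: [2,8-3H]-cAMP hydrolysis by PDE4 ran 120 min at room temperature in Tris-HCl pH 7.4 buffer with 8.3 mM MgCl2, 1.7 mM EGTA and 3 mg/mL BSA. Bead-bound product (YSi-SPA with ZnSO4, 15 min) counted; blank lacks enzyme, control has DMSO only.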
A general note: In a scintillation proximity assay essentially only radioactivity close to the scintillant gives light.

Data set [1] in a line: Hepatic metabolic stability (rat liver microsome method). It is filed as in vitro ADME. The note with it: rat liver microsomes 0.5 mg/mL, test substance 1 μM, NADPH 1 mM, 37° C., 30 minutes. The method, then: Metabolic stability in rat liver microsomes was evaluated by the following method. In 100 mM of potassium phosphate buffer solution (pH 7.4), liver microsomes (concentration at reaction: 0.5 mg/mL) and the test substance (concentration at reaction: 1 μM) were preincubated at 37° C. Five minutes later, 100 mM of potassium phosphate buffer (pH 7.4) solution of NADPH (concentration at reaction: 1 mM) was mixed thereto to start the reaction. After a predetermined time passed, acetonitrile was mixed to the reaction mixture to stop the reaction. Here, the reaction time was 0 and 30 minutes, and drug concentration measurement was performed for each time period using LC-MS. The % remaining value of the test compound was calculated from the value for 0 minutes and the value for 30 minutes, using the calculation formula below: % Remaining=(Value for 30 Minutes/Value for 0 Minutes)×100
The results of measuring the rat liver microsome metabolic Stability (% remaining for 30-minute reaction) for the test compound by the above method were evaluated in accordance with the following evaluated basis; A: a % remaining rate of 75% or more, B: 60% or more and less than 75%, C: 45% or more and less than 60%, and D: less than 45%.
In general terms: Liver microsomes are a subcellular fraction often used to study metabolism.

[2] abbreviates: scintillation proximity assay, class symbols, read-out: PDE4 Inhibitory Activity.
[3] abbreviates: scintillation proximity assay (SPA), evaluated as classes A, B, C, read-out: PDE4 Inhibitory Activity (concentration for the inhibition rate of 50%).

For `c1csc(-c2ccc(N3CCOCC3)c3nc(N4CC5CC(C4)N5)oc23)n1` [Example 369, 2-(3,6-diazabicyclo[3.1.1]heptan-3-yl)-4-morpholino-7-(thiazol-2-yl) benzo[d]oxazole], the IC50 with PDE4 (setting [2]) is less than 100 nM. Also, the “Residual ratio (% remaining for 30-minute reaction)” value in data set [1] is “B (60% or more and less than 75%)”.

As to `CN(CCO)C(=O)c1ccc(-c2nccs2)c2oc(N3CC4CC(C3)N4)nc12` [Example 356, 2-(3,6-diazabicyclo [3.1.1]heptan-3-yl)-N-(2-hydroxyethyl)-N-methyl-7-(thiazol-2-yl)benzo[d] oxazole-4-carboxamide], the IC50 in the data set with PDE4 (setting [2]) lay within 100 to 1000 nM. Also, in data set [1], the “Residual ratio (% remaining for 30-minute reaction)” value is recorded as “A (a % remaining rate of 75% or more)”.

`C[S+]([O-])c1ccc(-c2nccs2)c2oc(N3CC4CC(C3)N4)nc12` (centres unmarked) [Example 346, 2-(3,6-diazabicyclo[3.1.1]heptan-3-yl)-4-(methylsulfinyl)-7-(thiazol-2-yl)benzo [d]oxazole]: in the data set with PDE4 (setting [2]), the IC50 was less than 100 nM. Besides, the “Residual ratio (% remaining for 30-minute reaction)” value in data set [1] is reported as “A (a % remaining rate of 75% or more)”.

With `c1csc(-c2ccc(O[C@@H]3CCOC3)c3nc(N4CC5CC(C4)N5)oc23)n1` [Example 324, 2-(3,6-Diazabicyclo[3.1.1]heptan-3-yl)-4-(((R)-tetrahydrofuran-3-yl)oxy)-7-(thiazol-2-yl)benzo[d]oxazole], the IC50 in the data set with PDE4 (setting [3]) was less than 100 nM. Also, the “Residual ratio (% remaining for 30-minute reaction)” value in data set [1] is recorded as “A (a % remaining rate of 75% or more)”.

For the molecule `CC(C)(O)C(F)(F)Oc1ccc(-n2cccn2)c2oc(N3CC4CC(C3)N4)nc12` [Example 304, 1-((2-(3,6-Diazabicyclo[3.1.1]heptan-3-yl)-7-(1H-pyrazol-1-yl)benzo[d]oxazol-4-yl)oxy)-1,1-difluoro-2-methylpropan-2-ol], the IC50 in the data set on PDE4 (setting [3]) was less than 100 nM. Besides, the “Residual ratio (% remaining for 30-minute reaction)” value in data set [1] was “A (a % remaining rate of 75% or more)”.

For `CS(=O)(=O)c1ccc(Oc2ccc(-c3nccs3)c3oc(N4CC5CC(C4)N5)nc23)nc1` [Example 352, 2-(3,6-diaza-bicyclo[3.1.1]heptan-3-yl)-4-((5-(methylsulfonyl)pyridin-2-yl)oxy)-7-(thiazol-2-yl)benzo [d]oxazole], the IC50 in the data set with PDE4 (setting [2]) is less than 100 nM. In data set [1], the “Residual ratio (% remaining for 30-minute reaction)” value is recorded as “A (a % remaining rate of 75% or more)”.

`OC1CC(Oc2ccc(-c3nccs3)c3oc(N4CC5CC(C4)N5)nc23)C1` (centres unmarked) [Example 285, 3-((2-(3,6-Diazabicyclo[3.1.1]heptan-3-yl)-7-(thiazol-2-yl)benzo[d]oxazol-4-yl)oxy)cyclobutan-1-ol]: the IC50 with PDE4 (setting [3]) was less than 100 nM. Moreover, the “Residual ratio (% remaining for 30-minute reaction)” value in data set [1] is listed as “A (a % remaining rate of 75% or more)”.

For `OC1CCN(c2ccc(-c3nccs3)c3oc(N4CC5CC(C4)N5)nc23)CC1` [Example 397, 1-(2-(3,6-diazabicyclo[3.1.1]heptan-3-yl)-7-(thiazol-2-yl)benzo [d]oxazol-4-yl) piperidin-4-ol], the IC50 in the data set with PDE4 (setting [2]) is less than 100 nM. For the same molecule, the “Residual ratio (% remaining for 30-minute reaction)” value in data set [1] was “A (a % remaining rate of 75% or more)”.

On to `OC(c1cc(-c2nccs2)c2oc(N3CC4CCC(C3)N4)nc2c1)C(F)F` (centres unmarked) [Example 104, 1-(2-(3,8-Diazabicyclo[3.2.1]octan-3-yl)-7-(thiazol-2-yl)benzo[d]oxazol-5-yl)-2,2-difluoroethan-1-ol], for which the IC50 in the data set on PDE4 (setting [3]) is less than 100 nM. Besides, the “Residual ratio (% remaining for 30-minute reaction)” value in data set [1] was “B (60% or more and less than 75%)”.

As for `CC(O)C(F)(F)Oc1ccc(-c2nccs2)c2oc(N3CC4CC(C3)N4O)nc12` (single isomer, unassigned) [Example 373, 3-(4-(1,1-difluoro-2-hydroxypropoxy)-7-(thiazol-2-yl)benzo [d]oxazol-2-yl)-3,6-diazabicyclo[3.1.1] heptan-6-ol], in the data set with PDE4 (setting [2]), the IC50 is less than 100 nM. Moreover, the “Residual ratio (% remaining for 30-minute reaction)” value in data set [1] was “B (60% or more and less than 75%)”.

`Cc1nsc(-c2ccc(OC(F)(F)C(C)(C)O)c3nc(N4CC5CCC(C4)N5)oc23)n1` [Example 333, 1-((2-(3,8-diazabicyclo [3.2.1]octan-3-yl)-7-(3-methyl-1,2,4-thiadiazol-5-yl)benzo[d]oxazol-4-yl)oxy)-1,1-difluoro-2-methylpropan-2-ol]: the IC50 in the data set on PDE4 (setting [2]) was in the range of 100 to 1000 nM. Besides, the “Residual ratio (% remaining for 30-minute reaction)” value in data set [1] is “B (60% or more and less than 75%)”.

In the case of `OCC(F)(F)Oc1c(Cl)cc(-c2nccs2)c2oc(N3CC4CC(C3)N4)nc12` [Example 401, 2-((2-(3,6-diazabicyclo [3.1.1]heptan-3-yl)-5-chloro-7-(thiazol-2-yl)benzo[d]oxazol-4-yl)oxy)-2,2-difluoroethan-1-ol], in the data set on PDE4 (setting [2]), the IC50 was less than 100 nM. Moreover, in data set [1], the “Residual ratio (% remaining for 30-minute reaction)” value was “A (a % remaining rate of 75% or more)”.

In the case of `OCc1cnc(Oc2ccc(-c3nccs3)c3oc(N4CC5CC(C4)N5)nc23)c(C(F)(F)F)c1` [Example 342, (6-((2-(3,6-diazabicyclo[3.1.1]heptan-3-yl)-7-(thiazol-2-yl)benzo[d]oxazol-4-yl)oxy)-5-(trifluoromethyl)pyridin-3-yl) methanol], in the data set with PDE4 (setting [2]), the IC50 is less than 100 nM. Moreover, the “Residual ratio (% remaining for 30-minute reaction)” value in data set [1] was “B (60% or more and less than 75%)”.

For the molecule `CCNC(=O)c1ccc(-c2nccs2)c2oc(N3CC4CC(C3)N4)nc12` [Example 358, 2-(3,6-diazabicyclo [3.1.1]heptan-3-yl)-N-ethyl-7-(thiazol-2-yl) benzo[d]oxazole-4-carboxamide], the IC50 in the data set with PDE4 (setting [2]) is less than 100 nM. Also, the “Residual ratio (% remaining for 30-minute reaction)” value in data set [1] is on record as “A (a % remaining rate of 75% or more)”.

For `OCC(F)(F)Oc1ccc(-c2ccc(F)cn2)c2oc(N3CC4CC(C3)N4)nc12` [Example 319, 2-((2-(3,6-Diazabicyclo[3.1.1]heptan-3-yl)-7-(5-fluoropyridin-2-yl)benzo[d]oxazol-4-yl)oxy)-2,2-difluoroethan-1-ol], in the data set on PDE4 (setting [3]), the IC50 is less than 100 nM. Besides, the “Residual ratio (% remaining for 30-minute reaction)” value in data set [1] was “A (a % remaining rate of 75% or more)”.

With `CC(C)(O)C(F)(F)Oc1ccc(-n2cccn2)c2oc(N3CC4CCC(C3)N4)nc12` [Example 316, 1-((2-(3,8-Diazabicyclo[3.2.1]octan-3-yl)-7-(1H-pyrazol-1-yl)benzo[d]oxazol-4-yl)oxy)-1,1-difluoro-2-methylpropan-2-ol], in the data set with PDE4 (setting [3]), the IC50 is less than 100 nM. Besides, the “Residual ratio (% remaining for 30-minute reaction)” value in data set [1] was “A (a % remaining rate of 75% or more)”.

Turning to `COCCNC(=O)c1ccc(-c2nccs2)c2oc(N3CC4CC(C3)N4)nc12` [Example 353, 2-(3,6-diazabicyclo [3.1.1]heptan-3-yl)-N-(2-methoxyethyl)-7-(thiazol-2-yl) benzo[d] oxazole-4-carboxamide], the IC50 in the data set with PDE4 (setting [2]) was less than 100 nM. Further, the “Residual ratio (% remaining for 30-minute reaction)” value in data set [1] is on record as “A (a % remaining rate of 75% or more)”.

Turning to `O=C(c1ccc(-c2nccs2)c2oc(N3CC4CC(C3)N4)nc12)N1CCCC1` [Example 360, (2-(3,6-diazabicyclo [3.1.1]heptan-3-yl)-7-(thiazol-2-yl)benzo[d]oxazole-4-yl)(pyrrolidin-1-yl)methanone], in the data set on PDE4 (setting [2]), the IC50 was in the range of 100 to 1000 nM. Also, the “Residual ratio (% remaining for 30-minute reaction)” value in data set [1] was “A (a % remaining rate of 75% or more)”.

With `c1cnc(Oc2ccc(-c3nccs3)c3oc(N4CC5CC(C4)N5)nc23)nc1` [Example 338, 2-(3,6-diazabicyclo [3.1.1]heptan-3-yl)-4-(pyrimidin-2-yloxy)-7-(thiazol-2-yl)benzo[d]oxazole], in the data set on PDE4 (setting [2]), the IC50 is less than 100 nM. The “Residual ratio (% remaining for 30-minute reaction)” value in data set [1] is “A (a % remaining rate of 75% or more)”.
